In US12023348B2, “EGR1 targeting molecules for the treatment of inflammatory and hyperproliferative conditions” (The Medical Research, Infrastructure and Health Services …, priority 2015, dated 2024):
Where a name gives a salt, the structure may show the parent alone.

Assays:
SAMD9 promoter = experiment: High-throughput luciferase reporter screen in HeLa line stably expressing 585 bp SAMD9 promoter fragment; assay type: cell-based, human; details: fold increase in promoter activity by luciferase assay vs cells treated with vehicle only, test drugs 10 μM, 24 hours; for fold induction at 10 µM: Homo sapiens, HeLa, read-out: SAMD9 expression fold change in HeLa reporter assay
Method: HeLa cell lines stably expressing the constructs were generated under neomycin selection. Briefly, pGL4.17 containing a SAMD9 promoter fragment spanning 585 bp upstream to the TSS and an empty pGL4.17 vector were transfected into HeLa cells. Forty eight hours after transfection, standard medium was replaced with medium containing 600 μg/ml G418 (Sigma-Aldrich), cells were kept under G418 selection and the selective medium was replaced approximately every 2-3 days. After two passages, colonies of stable cells were isolated, expanded and frozen for further use.
Test drugs were dispensed at a concentration of 10 μM by a robotic system into 96-well plates containing 9000 cells/well expressing the pGL4.17 reporter construct carrying a 585 bp SAMD9 promoter fragment operably linked to luciferase gene or the empty pGL4.17 luciferase construct (Promega cat. no. E6721). Medium was removed after 24 hours and the cells subjected to Steady-Glo luciferase lysis-substrate solution assay (Promega) as described above. Liquid handling was done with the Tecan (Tecan) Freedom 150 (Robotic & MCA liquid Handling System) and the luciferase reading was done with a robot integrated Tecan Infinite® M1000 reader.
This cell line was then used to robotically screen a total of 1496 compounds obtained from the National Cancer Institute Diversity Set III and Oncology Drugs Set III small molecule libraries.

SAMD9 = SAMD9 RNA expression by qRT-PCR in HeLa cells; assay type: cell-based, human; details: fold increase in RNA gene expression vs cells treated with vehicle only
Method: HeLa cells were cultured in DMEM 4.5 g/l glucose medium containing 10% FCS, 1% L-glutamine and 1% penicillin and streptomycin (Biological Industries) and grown at 37° C. and 5% CO2.
Of note, when cells were incubated with CaCx and ApDx (NCI, MA USA), they were grown in the appropriate medium with 0.1% FCS only.
RNA was extracted from cell cultures using an RNA extraction kit (Roche Diagnostics, Mahheim, Germany). cDNA was synthesized from 500 ng of total RNA using the Verso cDNA kit (Thermo Fisher Scientific, Waltham, MA, USA). cDNA PCR amplification was carried out using the Fast SYBR Green Master Mix in a StepOnePlus™ Real-Time PCR System (Applied Biosystems, Foster City, CA, USA) with gene-specific intron-crossing oligonucleotide pairs listed in Table 1 (below). For quantification, standard curves were obtained using serially diluted cDNA amplified in the same qRT-PCR run. The melting temperature (Tm) of the amplified products was measured to confirm the specificity of the reaction conditions. Cycling conditions were as follows: 95° C. for 10 minutes, 95° C. for 10 seconds, 62° C. for 15 seconds, and 72° C. for 25 seconds for a total of 40 cycles. Each sample was analyzed in triplicate. mRNA expression level for target gene was normalized to GAPDH. The results are based the amount of target, normalized to an endogenous reference (IACTB) and relative to a calibrator, as calculated by 2-ΔΔCT. All samples were run in triplicate. The expression levels of target genes were expressed as mRNA relative units.
The potential ability of these 31 molecules to induce SAMD9 expression in cell cultures was then scrutinized.

| Structure (SMILES) | fold induction at 10 µM (SAMD9 promoter) | SAMD9 expression fold change in HeLa cells (SAMD9) [fold] | SAMD9 expression fold change in HeLa reporter assay (SAMD9 promoter) [fold] |
| --- | --- | --- | --- |
| CN(CCc1ccccn1)c1ccc2c(c1)C(=O)c1ccccc1-2 [Compound 24048, 2-(methyl(2-(2-pyridinyl)ethyl)amino)-9H-fluoren-9-one] | 2.84 | 1.62 | – |
| OC(CN1CCCCC1)c1ccc(/C=C/c2ccc(Cl)cc2)cc1 (stereo not shown) [Compound 26040] | 3.38 | 1.2 | – |
| COc1c2c(cc3oc(=O)ccc13)OC(C)(C)C=C2 [Compound 35542, Xanthoxylin N] | 4.08 | 4.71 | – |
| O=C1C(O)=C(CC=C(Cl)Cl)C(=O)c2ccccc21 [Compound 126771, Dichlorolawsone] | 2.23 | 3.27 | – |
| Cc1cccc(NC(=O)C=Cc2ccc([N+](=O)[O-])cc2)c1 [Compound 139109, N-(3-methylphenyl)-3-(4-nitrophenyl)acrylamide] | 2.03 | 0.72 | – |
| Cc1c2cnccc2c(C)c2c1c1ccccc1n2CCOC(=O)c1ccccc1 [Compound 163443, 2-(5,11-dimethyl-6H-pyrido [4,3-b]carbazol-6-yl) ethyl benzoate] | 2.24 | 6.49 | – |
| CC[C@@]1(O)C[C@H](OC2CC(N(C)C)C(OC3CC(O)C(CC4CC(O)C(O)C(C)O4)C(C)O3)C(C)O2)c2c(cc3c(c2O)C(=O)c2c(O)ccc(O)c2C3=O)[C@H]1C(=O)OC (stereo partly shown) [Compound 265211, Rhodirubin E] | 3.36 | 1.47 | – |
| COc1cccc2c1C(=O)c1c(O)c3c(c(O)c1C2=O)C[C@@](O)(C(C)=O)C[C@@H]3O[C@H]1C[C@H](N(Cc2ccccc2)Cc2ccccc2)[C@H](O)[C@H](C)O1 [Compound 268242, N,N-Dibenzyldaunorubicin hydrochloride] | 4.84 | 3.66 | – |
| Nc1ncnc2c1nc(Cl)n2[C@@H]1O[C@@H]2COP(=O)(O)O[C@H]2[C@H]1O [Compound 284751, Adenosine, 8-chloro-, cyclic 3′,5′-(hydrogen phosphate)] | 2.14 | 0.87 | – |
| O=C1Oc2ccccc2C(=O)/C1=C1/C=C(c2ccccc2)SS1 [Compound 293927, (3E)-3-(5-phenyl-3H-1,2-dithiol-3-ylidene)-2H-chromene-2,4(3H)-dione] | 2.82 | 1.77 | – |
| COc1ccc(-c2csc(=[N+]3CCCCC3)s2)cc1 [Compound 302358, Piperidinium, 1-[4-(4-methoxyphenyl)-1,3-dithiol-2-ylidene]-, sulfate (1:1)] | 2.72 | 0.84 | – |
| COc1cc2c3c(n(C)c(=O)c2cc1OC)-c1cc2c(cc1C3=O)OCO2 [Compound 314622, 5H-[1,3]Dioxolo[5,6]indeno[1,2-c]isoquinoline-5,12-dione, 2,3-dimethoxy-6-methyl-] | 2.31 | 2.51 | – |
| COc1ccc2c(c1[N+](=O)[O-])CC[C@@H]1[C@@H]2CC[C@]2(C)C(=O)CC[C@@H]12 [Compound 321803, 4-Nitroestrone 3-methyl ether] | – | – | 2.71 |
| CN(C)c1ccc2c(SCC(=O)OCC(=O)[C@@]3(O)CC[C@H]4[C@@H]5CCC6=CC(=O)C=C[C@]6(C)[C@H]5C(=O)C[C@@]43C)c3ccc(N(C)C)cc3nc2c1 [Compound 337851, Predorine] | 2.37 | 1.23 | – |
| CCN(CC)CCOc1ccccc1/C=C/c1noc2ccccc12 [Compound 601101, 2-(2-(2-(1,2-Benzisoxazol-3-yl)vinyl)phenoxy)-N,N-diethylethanamine hydrochloride] | 2.13 | – | – |
